Data published in US9643959B2, “Tubulin polymerization inhibitor and method for synthesizing same” (KOREA RESEARCH INSTITUTE OF BIOSCIENCE AND BIOTECHNOLOGY, priority 2013, dated 2017).

Test system: cell proliferation
Assay: screening of the small-molecule library for materials that can inhibit cell proliferation
Type: cell-based
Settings: screen of small-molecule library; no data or method given

CCOC(=O)Cn1c(C)c(/C=N/NC(=O)c2cc3c(ccc4ccccc43)o2)c2ccccc21 [Compound 7, (E)-ethyl 2-(2-methyl-3-((2-(naphtho[2,1-b]furan-2-carbonyl)hydrazono)methyl)-1H-indol-1-yl)acetate]
activity of inhibiting mitosis: has an activity of inhibiting mitosis
